This is an account of results in US6703413B2 (Rhode Island Hospital, priority 1999, dated 2004).

Molecules are shown by their SMILES.

One data set relates to human cancer cell lines. As to the kind of experiment: Cytotoxic activity of taurultam in vitro. It counts as cell-based. As to the method:
The cytotoxic activity of taurultam was evaluated in vitro using the same human cancer cell lines as described above. […] The data also indicate that the cytotoxic effect is directly proportionate to the number of methylol molecules liberated per molecule of methylol-containing compound

Data set [1] deals with Untransfected glioblastoma cells. As to the kind of experiment: Cytotoxicity in glioblastoma cells. The format is cell-based, human. The following applies: 1 μM.
Excerpt: (§1) The neoplastic cell lines used in the survey were standard tumor cell lines, e.g., PA1 human ovarian cell line, SKOV3 human ovarian cell line, HT29 human colon tumor cell line, DU145 human prostate tumor cell line, U251 human glioblastoma cell line, U251-MDR human glioblastoma cell line transfected with DNA encoding MDR, T98G human glioblastoma cell line, SP-1 human leukemia cell line, and Daudi human leukemia cell line.
(§2) Glioblastoma cells were transfected with a gene encoding multiple drug resistance (MDR).
Data set [2] has as its system MDR-transfected glioblastoma cells. As to the kind of experiment: Cytotoxicity in drug resistant glioblastoma cells.
Excerpt: as §1, §2

Consider `O=S1(=O)CCNCN1` [taurultam], for which the apoptotic death result in the data set with human cancer cell lines (cancer cells versus normal control cells) was “induced apoptotic death of cancer cells but not normal control cells”. For the same compound, the “cytotoxic activity relative to taurolidine” value in the data set on human cancer cell lines (of the activity observed with taurolidine) is “approximately 75%”.

On to `COc1cccc2c1C(=O)c1c(O)c3c(c(O)c1C2=O)C[C@@](O)(C(=O)CO)C[C@@H]3O[C@H]1C[C@H](N)[C@H](O)[C@H](C)O1` [adriamycin], for which the cytotoxicity result in data set [1] is “killed”; in data set [2] (1 μM) it was “resistant”. In addition, the “resistance of transfected cells” value in data set [2] (MDR-transfected versus untransfected) is listed as 100-1000 times.
